pIC50: −log10 of the molar value. Calls of active or inactive are those of the source. No cut-off for these calls is given here.
What was measured:
Format in all cases: functional, cell-based
[1] = tested on: Ca-Ski; assay: Induction of ferroptosis in human Ca Ski cells assessed as increase in lipid ROS level by measuring rightward shift in fluorescence intensity at 6 uM measured after 12 hrs by C11-BODIPY-581/591 staining based flow cytometric analysis
[2] = tested on: HeLa; assay: Induction of ferroptosis in human HeLa cells assessed as increase in lipid ROS level by measuring rightward shift in fluorescence intensity at 8 uM measured after 12 hrs by C11-BODIPY-581/591 staining based flow cytometric analysis
[3] = tested on: MCF7; assay: Antiproliferative activity against human MCF7 cells assessed as reduction in cell optical density incubated for 48 hrs by MTT assay; settings: MCF7, 48 h
[4] = tested on: A549; assay: Antiproliferative activity against human A549 cells assessed as reduction in cell optical density incubated for 48 hrs by MTT assay; settings: A549, 48 h
[5] = tested on: BGC-823; assay: Antiproliferative activity against human BGC-823 cells assessed as reduction in cell optical density incubated for 48 hrs by MTT assay; settings: BGC-823, 48 h
[6] = tested on: HCT-116; assay: Antiproliferative activity against human HCT-116 cells assessed as reduction in cell optical density incubated for 48 hrs by MTT assay; settings: HCT-116, 48 h
[7] = tested on: HeLa; assay: Antiproliferative activity against human HeLa cells assessed as reduction in cell optical density incubated for 48 hrs by MTT assay
[8] = tested on: HepG2; assay: Antiproliferative activity against human HepG2 cells assessed as reduction in cell optical density incubated for 48 hrs by MTT assay; settings: HepG2, 48 h
[9] = tested on: HeLa; assay: Induction of autophagy in human HeLa cells transfected with mRFP-GFP-LC3 plasmid assessed as stable RFP fluorescence at 30 uM incubated for 24 hrs by DAPI staining based fluorescence confocal microscopic analysis

Compound: COC(=O)c1ccc([C@H]2c3[nH]c4ccccc4c3C[C@H](C(=O)OC)N2C(=O)CCl)cc1
- Activity [1]: Active
- Activity [2]: Active

Compound: CN1CCN(c2ccnc3cc(OCCCCOc4ccc5c(N6CCN(C)CC6)ccnc5c4)ccc23)CC1
- pIC50 [3]: < 3.70
- pIC50 [4]: 3.86
- pIC50 [5]: 3.87
- pIC50 [6]: < 3.70
- pIC50 [7]: 3.84
- pIC50 [8]: < 3.70

Compound: COc1cccc(Nc2ccnc3cc(OCCCCOc4ccc5c(Nc6cccc(OC)c6)ccnc5c4)ccc23)c1
- pIC50 [3]: 4.33
- pIC50 [4]: 3.85
- pIC50 [5]: 4.20
- pIC50 [6]: < 3.70
- pIC50 [7]: 4.32
- pIC50 [8]: < 3.70

Compound: CN1CCN(c2ccnc3cc(OCCCCCCOc4ccc5c(N6CCN(C)CC6)ccnc5c4)ccc23)CC1
- pIC50 [3]: 4.35
- pIC50 [4]: 6.48
- pIC50 [5]: 4.30
- pIC50 [6]: 4.37
- pIC50 [7]: 4.58
- pIC50 [8]: 4.36

Compound: CO[C@H]1C[C@@H]2CC[C@@H](C)[C@@](O)(O2)C(=O)C(=O)N2CCCC[C@H]2C(=O)O[C@H]([C@H](C)C[C@@H]2CC[C@@H](O)[C@H](OC)C2)CC(=O)[C@H](C)/C=C(\C)[C@@H](O)[C@@H](OC)C(=O)[C@H](C)C[C@H](C)/C=C/C=C/C=C/1C
- Activity [9]: Active

Compound: FC(F)(F)Oc1cccc(Nc2ccnc3cc(OCCCCOc4ccc5c(Nc6cccc(OC(F)(F)F)c6)ccnc5c4)ccc23)c1
- pIC50 [3]: < 3.70
- pIC50 [4]: 5.56
- pIC50 [5]: 4.18
- pIC50 [6]: 4.87
- pIC50 [7]: 4.85
- pIC50 [8]: 5.56

Compound: CN1CCN(c2ccnc3cc(OCCCCCOc4ccc5c(N6CCN(C)CC6)ccnc5c4)ccc23)CC1
- pIC50 [3]: 5.22
- pIC50 [4]: 4.59
- pIC50 [5]: 5.45
- pIC50 [6]: 5.41
- pIC50 [7]: 4.51
- pIC50 [8]: 4.45

Compound: FC(F)(F)Oc1cccc(Nc2ccnc3cc(OCCCCCOc4ccc5c(Nc6cccc(OC(F)(F)F)c6)ccnc5c4)ccc23)c1
- pIC50 [3]: 4.42
- pIC50 [4]: 6.11
- pIC50 [5]: 5.47
- pIC50 [6]: 4.76
- pIC50 [7]: 4.84
- pIC50 [8]: 4.61

Compound: COc1cccc(Nc2ccnc3cc(OCCCCCCOc4ccc5c(Nc6cccc(OC)c6)ccnc5c4)ccc23)c1
- pIC50 [3]: 5.26
- pIC50 [4]: 5.21
- pIC50 [5]: 5.45
- pIC50 [6]: 5.16
- pIC50 [7]: 5.39
- pIC50 [8]: 4.50

Compound: Fc1cccc(Nc2ccnc3cc(OCCCCOc4ccc5c(Nc6cccc(F)c6)ccnc5c4)ccc23)c1
- pIC50 [3]: 5.17
- pIC50 [4]: 4.88
- pIC50 [5]: 4.73
- pIC50 [6]: 4.77
- pIC50 [7]: 4.43
- pIC50 [8]: 4.98

Compound: Fc1cccc(Nc2ccnc3cc(OCCCCCCOc4ccc5c(Nc6cccc(F)c6)ccnc5c4)ccc23)c1
- pIC50 [3]: < 3.70
- pIC50 [4]: 6.12
- pIC50 [5]: 5.01
- pIC50 [6]: 5.18
- pIC50 [7]: 6.03
- pIC50 [8]: 6.44

Compound: FC(F)(F)Oc1cccc(Nc2ccnc3cc(OCCCCCCOc4ccc5c(Nc6cccc(OC(F)(F)F)c6)ccnc5c4)ccc23)c1
- pIC50 [3]: < 3.70
- pIC50 [4]: 6.51
- pIC50 [5]: 4.05
- pIC50 [6]: 4.99
- pIC50 [7]: 4.55
- pIC50 [8]: 4.35

Compound: Fc1cccc(Nc2ccnc3cc(OCCCCCOc4ccc5c(Nc6cccc(F)c6)ccnc5c4)ccc23)c1
- pIC50 [3]: 5.30
- pIC50 [4]: 5.59
- pIC50 [5]: 5.61
- pIC50 [6]: 5.48
- pIC50 [7]: 5.36
- pIC50 [8]: 4.34
